Data: patent US11084781B2, “Diarylureas as CB1 allosteric modulators” (Research Triangle Institute, priority 2017, dated 2021)

Molecular target: T1, human CB1 receptor (Homo sapiens, UniProt P21554)
T1 construct: host or cells: CHO-RD-HGA16 cells (CHO cells overexpressing promiscuous Galpha16)
Test: CB1 calcium mobilization assay (antagonist mode, against EC80 of CP55,940)
Format: cell-based
Conditions: Table 1; against EC80 (100 nM) of CP55,940; mean ± S.E.M.; read-out: CB1 calcium assay IC50
Description: CHO-RD-HGA16 cells (Molecular Devices, CA) stably expressing the human CB1 receptor were plated into 96-well black-walled assay plates at 25,000 cells/well in 100 μL of Ham's F12 (supplemented with 10% fetal bovine serum, 100 units of penicillin/streptomycin, and 100 μg/mL Normocin) and incubated overnight at 37° C., 5% CO2. Calcium 5 dye (Molecular Devices, CA) was reconstituted according to the manufacturer's instructions. The reconstituted dye was diluted 1:40 in prewarmed (37° C.) assay buffer (1×HBSS, 20 mM HEPES, 2.5 mM probenecid, pH 7.4 at 37° C.). Growth medium was removed, and the cells were gently washed with 100 μL of prewarmed (37° C.) assay buffer. […] After the pretreatment incubation period, the plate was read with a FLIPR Tetra (Molecular Devices, CA). […] Relative fluorescence units (RFU) were plotted against the log of compound concentrations. Data were fit to a three-parameter logistic curve to generate IC50 values (GraphPad Prism 6.0, CA). […] Test compound RFUs were compared to the CP55,940 Emax RFUs to generate % Emax values.
In these assays, CHO cells that overexpress the promiscuous Gα16 protein were engineered to stably express the CB1 or CB2 receptor. Compounds were evaluated for their ability to decrease the mobilization of intracellular calcium levels stimulated by CP55,940.

T1 sequence (P21554 whole entry): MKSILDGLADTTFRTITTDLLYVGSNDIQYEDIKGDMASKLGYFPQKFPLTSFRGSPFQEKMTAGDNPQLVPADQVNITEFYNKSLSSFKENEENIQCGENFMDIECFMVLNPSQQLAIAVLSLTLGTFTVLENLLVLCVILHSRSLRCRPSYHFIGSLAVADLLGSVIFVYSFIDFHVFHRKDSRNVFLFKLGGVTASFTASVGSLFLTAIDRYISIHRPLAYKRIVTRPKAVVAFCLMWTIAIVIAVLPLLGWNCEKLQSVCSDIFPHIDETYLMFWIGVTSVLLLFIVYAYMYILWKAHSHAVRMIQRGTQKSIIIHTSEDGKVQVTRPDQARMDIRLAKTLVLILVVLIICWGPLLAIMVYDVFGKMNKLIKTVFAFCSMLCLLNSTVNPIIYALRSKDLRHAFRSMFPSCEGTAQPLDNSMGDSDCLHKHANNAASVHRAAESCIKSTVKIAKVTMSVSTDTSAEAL

| SMILES | IC50 [nM] |
| --- | --- |
| O=C(Nc1ccc(Cl)cc1)Nc1cccc(-c2ccoc2)c1 [Compound 46, 3-(4-Chlorophenyl)-1-[3-(furan-3-yl)phenyl]urea] | 41 ± 9 |
| O=C(Nc1ccc(Cl)cc1)Nc1cccc(N2CCCCC2)c1 [Compound 76, 3-(4-Chlorophenyl)-1-[3-(piperidin-1-yl)phenyl]urea] | 174 ± 31 |
| O=C(Nc1ccc(Cl)cc1)Nc1cccc(N2CCOCC2)c1 [Compound 77, 1-(4-Chlorophenyl)-3-[3-(morpholin-4-yl)phenyl]urea] | 360 ± 64 |
| O=C(Nc1ccc(Cl)cc1)Nc1cccc(N2CCCC2)c1 [Compound 78, 1-(4-Chlorophenyl)-3-[3-(pyrrolidin-1-yl)phenyl]urea] | 40 ± 4 |
| CN1CCN(c2cccc(NC(=O)Nc3ccc(Cl)cc3)c2)CC1 [Compound 79, 1-(4-Chlorophenyl)-3-[3-(4-methylpiperazin-1-yl)phenyl]urea] | 2880 |
| O=C(Nc1ccc(Cl)cc1)Nc1cccc(N2CCC2)c1 [Compound 80, 3-[3-(Azetidin-1-yl)phenyl]-1-(4-chlorophenyl)urea] | 35 ± 5 |
| O=C(Nc1ccc(Cl)cc1)Nc1cccc(N2CCC(F)(F)CC2)c1 [Compound 81, 3-(4-Chlorophenyl)-1-[3-(4,4-difluoropiperidin-1-yl)phenyl]urea] | 92 ± 9 |
| O=C(Nc1ccc(Cl)cc1)Nc1cccc(N2CCCCCC2)c1 [Compound 83, 1-[3-(Azepan-1-yl)phenyl]-3-(4-chlorophenyl)urea] | 350 ± 37 |
| CN(C)c1cccc(NC(=O)Nc2ccc(Cl)cc2)c1 [Compound 85, 1-(4-Chlorophenyl)-3-[3-(dimethylamino)phenyl]urea] | 113 ± 19 |
| CCN(CC)c1cccc(NC(=O)Nc2ccc(Cl)cc2)c1 [Compound 86, 3-(4-Chlorophenyl)-1-[3-(diethylamino)phenyl]urea] | 297 ± 37 |
| O=C(Nc1ccc(Cl)cc1)Nc1cccc(CN2CCCC2)c1 [Compound 90, 3-(4-Chlorophenyl)-1-[3-(pyrrolidin-1-ylmethyl)phenyl]urea] | > 10000 |
| COc1cccc(NC(=O)Nc2ccc(Cl)cc2)c1 [Compound 91, 3-(4-Chlorophenyl)-1-(3-methoxyphenyl)urea] | 520 ± 36 |
| O=C(Nc1ccc(Cl)cc1)Nc1cccc(OC2CCCC2)c1 [Compound 95, 3-(4-Chlorophenyl)-1-[3-(cyclopentyloxy)phenyl]urea] | 277 ± 36 |

Same assay, conditions: Table 2; against EC80 (100 nM) of CP55,940; mean ± S.E.M.; read-out: CB1 calcium assay IC50

| SMILES | IC50 [nM] |
| --- | --- |
| O=C(Nc1ccc(Cl)cc1)Nc1ccc(-c2ccccc2)cc1 [Compound 59, 3-(4-Chlorophenyl)-1-(4-phenylphenyl)urea] | 66 ± 9 |

Molecular target: T2, CB1 receptor (Mus musculus, UniProt P47746)
T2 construct: from tissue; host or cells: cerebellar membranes of adult male CD-1 mice
Test: [35S]GTP-γ-S binding assay in mouse cerebellar membranes, CP55,940-stimulated
Format: biochemical
Conditions: CP55,940 (100 nM) stimulation, mean (95% confidence interval)
Description: Cerebella from adult male CD-1 mice were dissected on ice, snap frozen, and stored at −80° C. until the day of the experiment. Cerebella were homogenized by polytron in membrane buffer (50 mM Tris, 3 mM MgCl2, 0.2 mM EGTA, 100 mM NaCl, pH 7.4) on ice, centrifuged for 10 min at 40,000×g at 4° C. The supernatant was discarded and the pellet was suspended in membrane buffer, homogenized, and centrifuged again for 10 min at 40,000×g. The pellet was resuspended in membrane buffer and protein quantified by Bradford method.
CB1 receptor agonist CP55,940 was employed as the agonist probe.

T2 sequence (P47746 whole entry): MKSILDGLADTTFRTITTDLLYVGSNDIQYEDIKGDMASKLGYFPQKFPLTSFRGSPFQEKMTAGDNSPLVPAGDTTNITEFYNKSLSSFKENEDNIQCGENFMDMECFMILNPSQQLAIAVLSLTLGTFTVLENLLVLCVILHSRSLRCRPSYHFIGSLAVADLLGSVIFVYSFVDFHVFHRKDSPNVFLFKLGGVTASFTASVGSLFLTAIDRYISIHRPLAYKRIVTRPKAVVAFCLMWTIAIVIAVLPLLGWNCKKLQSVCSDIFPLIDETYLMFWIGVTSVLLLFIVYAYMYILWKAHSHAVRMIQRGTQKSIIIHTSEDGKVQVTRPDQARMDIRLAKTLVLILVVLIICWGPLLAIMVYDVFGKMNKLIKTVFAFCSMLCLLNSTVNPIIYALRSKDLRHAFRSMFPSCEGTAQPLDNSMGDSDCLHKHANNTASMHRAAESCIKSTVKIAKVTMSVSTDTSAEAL

| SMILES | IC50 [nM] |
| --- | --- |
| Cc1cccc(-c2cccc(NC(=O)Nc3ccc(Cl)cc3)c2)c1 [Compound 27, 3-(4-Chlorophenyl)-1-[3-(3-methylphenyl)phenyl]urea] | 456 |
| O=C(Nc1ccc(Cl)cc1)Nc1cccc(-c2ccc3ccccc3c2)c1 [Compound 42, 3-(4-Chlorophenyl)-1-[3-(naphthalen-2-yl)phenyl]urea] | 1520 |
| O=C(Nc1ccc(Cl)cc1)Nc1cccc(-c2ccc3ccccc3n2)c1 [Compound 43, 3-(4-Chlorophenyl)-1-[3-(quinolin-2-yl)phenyl]urea] | 1890 |
| O=C(Nc1ccc(Cl)cc1)Nc1cccc(-c2ccoc2)c1 [Compound 46, 3-(4-Chlorophenyl)-1-[3-(furan-3-yl)phenyl]urea] | 440 |
| O=C(Nc1ccc(Cl)cc1)Nc1cccc(N2CCC2)c1 [Compound 80, 3-[3-(Azetidin-1-yl)phenyl]-1-(4-chlorophenyl)urea] | 1380 |

Molecular target: T1, human CB1 receptor
Test: CB1 calcium mobilization assay, agonist screen
Format: cell-based
Conditions: Table 1; 10,000 nM final concentration; mean ± SD
Description: CHO-RD-HGA16 cells (Molecular Devices, CA) stably expressing the human CB1 receptor were plated into 96-well black-walled assay plates at 25,000 cells/well in 100 μL of Ham's F12 (supplemented with 10% fetal bovine serum, 100 units of penicillin/streptomycin, and 100 μg/mL Normocin) and incubated overnight at 37° C., 5% CO2. Calcium 5 dye (Molecular Devices, CA) was reconstituted according to the manufacturer's instructions. The reconstituted dye was diluted 1:40 in prewarmed (37° C.) assay buffer (1×HBSS, 20 mM HEPES, 2.5 mM probenecid, pH 7.4 at 37° C.). Growth medium was removed, and the cells were gently washed with 100 μL of prewarmed (37° C.) assay buffer. The cells were incubated for 45 min at 37° C., 5% CO2 in 200 μL of the diluted Calcium 5 dye solution. […] Serial dilutions of the test compounds were prepared at 10× the desired final concentration in 2.25% BSA/4.5% DMSO/4.5% EtOH/assay buffer. After the dye loading incubation period, the cells were pretreated with 25 μL of the test compound serial dilutions and incubated for 15 min at 37° C. After the pretreatment incubation period, the plate was read with a FLIPR Tetra (Molecular Devices, CA). Calcium-mediated changes in fluorescence were monitored every 1 s over a 90 s time period, with the Tetra adding 25 μL of the CP55,940 EC80 concentration at the 10s time point (excitation/emission: 485/525 nm). Relative fluorescence units (RFU) were plotted against the log of compound concentrations. Data were fit to a three-parameter logistic curve to generate IC50 values (GraphPad Prism 6.0, CA). […] For agonist screens, the above procedure was followed except that cells were pretreated with 2.25% BSA/4.5% DMSO/4.5% EtOH/assay buffer and the Tetra added single concentration dilutions of the test compounds prepared at 10× the desired final concentration in 0.25% BSA/0.5% DMSO/0.5% EtOH/assay buffer. Test compound RFUs were compared to the CP55,940 Emax RFUs to generate % Emax values.

| SMILES | CB1 calcium assay Agonist screen (% CP55, 940 Emax) |
| --- | --- |
| Cc1ccnc(-c2cccc(NC(=O)Nc3ccc(Cl)cc3)c2)c1 [Compound 16, 3-(4-Chlorophenyl)-1-[3-(4-methylpyridin-2-yl)phenyl]urea] | 2.9 ± 0.1 % CP55, 940 Emax |
| O=C(Nc1ccc(Cl)cc1)Nc1cccc(-c2ccc(C(=O)c3ccccc3)cc2)c1 [Compound 40, 3-(4-Chlorophenyl)-1-[3-(4-benzoylphenyl)phenyl]urea] | 12.9 ± 1.7 % CP55, 940 Emax |
| O=C(Nc1ccc(Cl)cc1)Nc1cccc(-c2ccc3ccccc3c2)c1 [Compound 42, 3-(4-Chlorophenyl)-1-[3-(naphthalen-2-yl)phenyl]urea] | 6.9 ± 0.5 % CP55, 940 Emax |
| O=C(Nc1ccc(Cl)cc1)Nc1cccc(-c2ccc3ccccc3n2)c1 [Compound 43, 3-(4-Chlorophenyl)-1-[3-(quinolin-2-yl)phenyl]urea] | 4.5 ± 0.7 % CP55, 940 Emax |
| O=C(Nc1ccc(Cl)cc1)Nc1cccc(N2CCCCC2)c1 [Compound 76, 3-(4-Chlorophenyl)-1-[3-(piperidin-1-yl)phenyl]urea] | 1.1 ± 0 % CP55, 940 Emax |
| O=C(Nc1ccc(Cl)cc1)Nc1cccc(N2CCOCC2)c1 [Compound 77, 1-(4-Chlorophenyl)-3-[3-(morpholin-4-yl)phenyl]urea] | 12.4 ± 1.8 % CP55, 940 Emax |
| O=C(Nc1ccc(Cl)cc1)Nc1cccc(N2CCCC2)c1 [Compound 78, 1-(4-Chlorophenyl)-3-[3-(pyrrolidin-1-yl)phenyl]urea] | 0.6 ± 0.5 % CP55, 940 Emax |
| CN1CCN(c2cccc(NC(=O)Nc3ccc(Cl)cc3)c2)CC1 [Compound 79, 1-(4-Chlorophenyl)-3-[3-(4-methylpiperazin-1-yl)phenyl]urea] | 27.6 ± 2.0 % CP55, 940 Emax |
| O=C(Nc1ccc(Cl)cc1)Nc1cccc(N2CCC(F)(F)CC2)c1 [Compound 81, 3-(4-Chlorophenyl)-1-[3-(4,4-difluoropiperidin-1-yl)phenyl]urea] | 14.0 ± 0.6 % CP55, 940 Emax |
| O=C(Nc1ccc(Cl)cc1)Nc1cccc(N2CCCCCC2)c1 [Compound 83, 1-[3-(Azepan-1-yl)phenyl]-3-(4-chlorophenyl)urea] | 18.6 ± 1.1 % CP55, 940 Emax |
| CN(C)c1cccc(NC(=O)Nc2ccc(Cl)cc2)c1 [Compound 85, 1-(4-Chlorophenyl)-3-[3-(dimethylamino)phenyl]urea] | 14.5 ± 4.9 % CP55, 940 Emax |
| CCN(CC)c1cccc(NC(=O)Nc2ccc(Cl)cc2)c1 [Compound 86, 3-(4-Chlorophenyl)-1-[3-(diethylamino)phenyl]urea] | 20.9 ± 0.2 % CP55, 940 Emax |
| O=C(Nc1ccc(Cl)cc1)Nc1cccc(CN2CCCC2)c1 [Compound 90, 3-(4-Chlorophenyl)-1-[3-(pyrrolidin-1-ylmethyl)phenyl]urea] | 27.5 ± 4.5 % CP55, 940 Emax |
| COc1cccc(NC(=O)Nc2ccc(Cl)cc2)c1 [Compound 91, 3-(4-Chlorophenyl)-1-(3-methoxyphenyl)urea] | 13.6 ± 2.4 % CP55, 940 Emax |
| O=C(Nc1ccc(Cl)cc1)Nc1cccc(OC2CCCC2)c1 [Compound 95, 3-(4-Chlorophenyl)-1-[3-(cyclopentyloxy)phenyl]urea] | 11.7 ± 1.4 % CP55, 940 Emax |

Same assay, conditions: Table 2; 10,000 nM final concentration; mean ± SD

| SMILES | CB1 calcium assay Agonist screen (% CP55, 940 Emax) |
| --- | --- |
| O=C(Nc1ccc(Cl)cc1)Nc1ccc(-c2ccccc2)cc1 [Compound 59, 3-(4-Chlorophenyl)-1-(4-phenylphenyl)urea] | 21 ± 4 % CP55, 940 Emax |
